Assay [1] relates to Other Anopheles. The experiment in a line: Field human landing catches, Goden village. The assay is classed as in vivo. The following applies: total catch during the tests, collection 6 pm to 6 am. On the procedure:
(§1) The protection time provided by ointment No. 9 of Example 1 has been measured according to the “Guidelines for efficacy testing of mosquito repellents for human skin” published by the World Health Organization in 2009 (noted hereafter “WHO Guidelines, 2009”). These guidelines describe how human landing catches must be performed on volunteers. The effectiveness of ointment No. 9 was evaluated and compared to a 20% ethanol solution of DEET (N, N-Diethyl-3-methylbenzamide), being the positive control, and an ethanol solution being the negative control.
(§2) Briefly, the study was carried out in real conditions at the Goden village (12°25′N, 1°20′W), a rural village in the locality of Gampela, 25 km north-east of Ouagadougou, the capital city of Burkina Faso. Goden is in the Sudanian Savanna with approximately 800 inhabitants mainly belonging to the Mossi ethnic group, mostly devoted to agriculture and rearing few animals such as dogs, pigs and others. Goden is known for its high density of malaria vectors due to its proximity to the Massiri river. This study was carried out during the high malaria transmission period, when the mosquito density was the highest A preliminary assessment of the collection site was carried out by undertaking captures on human volunteers before the tests themselves. […]

The test system of assay [2] is Anopheles funestus. The experiment in a line: Field human landing catches, Goden village. The assay is classed as in vivo. The following applies: total catch during the tests, collection 6 pm to 6 am. As for the experimental part:
as §1, §2

The subject of assay [3] is Culicine. The experiment in a line: Field human landing catches, Goden village. As to conditions: total catch during the tests, collection 6 pm to 6 am. The format is in vivo, Culicine (Aedes). As for the experimental part:
as §1, §2

For assay [4], the system named is An. arabiensis (Kingani), An. gambiae s.s. (Kisumu), Ae. aegypti (Bagamoyo). The experiment in a line: Semi-field system (SFS), all species tested. The assay is classed as in vivo, Anopheles and Aedes mosquitoes. As for the experimental part:
(§3) The study was conducted under ambient condition in the semi-field system (SFS) located in Bagamoyo district at the Ifakara Health Institute at Bagamoyo branch in Tanzania. Bagamoyo is located on the coast region of the Indian Ocean between latitudes 6° and 8′ South and between longitudes 30° and 37′ East. The district experience annual rainfall ranging between 800 mm and 1000 mm, temperature ranging between 22° C. and 33° C., and mean relative humidity of 73%.
Three laboratory-reared mosquito strains, aged 6 days old, sugar starved for 8 hours, nulliparous females, reactive to human odor on the day of the experiment, have been used for this experiment. […]
(§4) Volunteers wore shorts, closed shoes and bug jacket to ensure mosquitoes had access to the lower limbs only. […] After application, an empty plastic cups were weighed to determine the quantity of repellent left in the cup. […]
(§5) During the last 9 days, we used same volunteers, compartments and rotation schedule. […] Volunteers recorded a time the first mosquito of each species landed on the limb and the recaptured mosquito was placed in a paper cup labelled with volunteers unique identification code, time of collection, position and treatment code. […]

The test system of assay [5] is mosquitoes. Nature of the assay: Field human landing catches, hourly mosquito biting rate. As to conditions: with 95% CI. The format is in vivo. As for the experimental part:
as §1, §2

Assay [6] has as its system Anopheles gambiae s.l. Nature of the assay: Field human landing catches on treated lower legs, Goden village (WHO Guidelines 2009). The assay is classed as in vivo. As to conditions: for Median CPT (complete protection time): Kaplan-Meier. As for the experimental part:
as §1
Briefly, the study was carried out in real conditions at the Goden village (12°25′N, 1°20′W), a rural village in the locality of Gampela, 25 km north-east of Ouagadougou, the capital city of Burkina Faso. Goden is in the Sudanian Savanna with approximately 800 inhabitants mainly belonging to the Mossi ethnic group, mostly devoted to agriculture and rearing few animals such as dogs, pigs and others. Goden is known for its high density of malaria vectors due to its proximity to the Massiri river. This study was carried out during the high malaria transmission period, when the mosquito density was the highest A preliminary assessment of the collection site was carried out by undertaking captures on human volunteers before the tests themselves.
A total of twenty volunteers have been recruited from the Goden village and have been trained for the nocturnal collection of mosquitoes on human bait using mouth aspirator and flash torch known as Human Landing Catches (HCL). The age of the volunteers ranged from 18 to 50 years old. After receiving explanation of the aims, benefits and risks of the study, they signed a written informed consent. The composition of the ointment was not disclosed to the volunteers. Volunteers were instructed not to use any fragranced soap or perfume, tobacco or alcohol 12 hours before the start and throughout the experiments. Before applying treatments, the lower leg of volunteers was washed with neutral soap, rinsed with 70% of ethanol solution and naturally dried. Once their legs treated volunteers were also asked to avoid rubbing, touching or wetting the repellent-treated area.
Three treatments have been carried out in the study: • (i) one negative control (ethanol 100%), • (ii) two treatments of 20% DEET diluted in ethanol 100% of technical quality used as a positive control, since this repellent is considered as the reference, • (iii) two treatments of ointment No. 9.
The products were applied to the bare leg of the volunteers and the areas of application were exposed to mosquito bites in the field. Volunteers applied to their exposed leg: Ointment No. 9 at a dosage of 2 mg/cm^2, and 20% DEET in ethanol for the positive control at a dosage of 1 ml per 600 cm^2.
To establish the amount of repellent required for application in the experiments, the surface area of the leg of each volunteer were determined by first measuring the circumferences expressed in centimeter (cm) just below the knee, and above the ankle, multiplied by the length of the lower leg, measured from the knee to the ankle. The surface area (in cm^2) of skin was calculated according to formula (1) below: Area=½(Ck+Ca)Dka, (1) wherein Ck is the circumference below the knee in cm, Ca is the circumference above the ankle in centimeter, and Dka is the distance in centimeter between Ca and Ck. The amount needed for each volunteer was then determined depending on their leg length. In addition, the quantity of product left in bottles was weighed using a precision weighing balance (KERN & SOHN GmbH) to determine the amount applied by each volunteer. Overall, the average amount applied was 2.4±0.2 g per 1189±79.2 cm^2 and per volunteer's lower leg, leading to 2 mg/cm^2 of Ointment No. 9 and […] of a 20% DEET solution.
Volunteers were divided into five groups of four volunteers. All the members of a group received the same treatment at the same time. […]

The subject of assay [7] is Ae. aegypti (Bagamoyo). Nature of the assay: Semi-field system (SFS) recapture of released mosquitoes on treated lower limbs. The format is in vivo, Aedes aegypti. As for the experimental part: as §3
(§6) Three laboratory-reared mosquito strains, aged 6 days old, sugar starved for 8 hours, nulliparous females, reactive to human odor on the day of the experiment, have been used for this experiment. Mosquito strains used were: (i) the pyrethroid insecticide resistant (20% mortality) An. arabiensis (Kingani, (ii) fully pyrethroid susceptible An. gambiae s.s. (Kisumu) and (iii) Ae. aegypti (Bagamoyo). The vector control product-testing unit of IHI supplied all mosquitoes used in the experiments.
The mosquitoes were reared in the insectary following MR4 guideline (MR4. Methods in Anopheles Research 2016; 2015 Edition). Adults were kept inside cages measuring 30 cm×30 cm×30 cm. Only hyperactive mosquitoes were selected at least 8 hours before the experiment. […] About 30 minutes before the experiment, mosquitoes were transferred to the SFS to acclimatize the environmental conditions. […]
as §4, §5

Assay [8] has as its system An. arabiensis (Kingani). The assay is described as above. The format is in vivo. On the procedure: as §3, §6
(§7) The mosquitoes were reared in the insectary following MR4 guideline (MR4. Methods in Anopheles Research 2016; 2015 Edition). Adults were kept inside cages measuring 30 cm×30 cm×30 cm. Only hyperactive mosquitoes were selected at least 8 hours before the experiment. […] About 30 minutes before the experiment, mosquitoes were transferred to the SFS to acclimatize the environmental conditions. The SFS offered the following advantages; 1) volunteers were exposed to laboratory-reared mosquitoes only, 2) experiments were run using a known number of mosquitoes throughout the experiments; 3) mosquitoes used were of known age (6 days), physiological status and avidity. These features improve data quality and less results variability between days and volunteers.
(§8) Three treatments have been tested: (i) Ethanol 100% as a negative control, (ii) 20% DEET diluted in ethanol 100% as a positive control, and (iii) ointment No. 9.
(§9) Volunteers wore shorts, closed shoes and bug jacket to ensure mosquitoes had access to the lower limbs only. Volunteers applied 20% DEET and ointment No. 9 at an average rate of 2 mg/cm^2 of the repellent to the lower limbs using latex glove to minimize absorption onto volunteer's hand. After application, an empty plastic cups were weighed to determine the quantity of repellent left in the cup. The composition of the ointment was not disclosed to the volunteers.
(§10) The study was divided into two experiments: one for Anopheles mosquitoes conducted in the late evening and the other for Ae. aegypti mosquitoes conducted early in the morning. The experiment for Anopheles started at 17:55 and that for Ae. aegypti at 06:00 hours.
(§11) The experiments were conducted for a total of 18 days. During the first 9 days 100 mosquitoes (50 per species) were released in each compartment starting at 18:00 hours for Anopheles species and at 06:00 hours for Ae. aegypti. After the release, the number of mosquitoes recaptured by volunteers who applied 20% DEET and ointment No. 9 was insignificant up to 6 hours of recapture period. This warranted to extend the recapture period to 12 hours 9 last days.
(§12) During the last 9 days, we used same volunteers, compartments and rotation schedule. Mosquitoes released were 100 per species and volunteers recaptured mosquitoes landing on their lower limbs using a mouth aspirator up to 12 hours of recapture period. Volunteers recorded a time the first mosquito of each species landed on the limb and the recaptured mosquito was placed in a paper cup labelled with volunteers unique identification code, time of collection, position and treatment code. The volunteer kept collecting subsequent mosquitoes up to 12 hours with cups changed after every hour.
(§13) At the end of recapture time, mosquitoes were killed by putting in the refrigerator for about 30 minutes and then sorted to species level. If the mosquito recaptured in the control was below 50 percent, the experiment was considered invalid, data discarded and the experiment repeated. […]

For assay [9], the system named is An. gambiae s.s. (Kisumu). The assay is described as above. The format is in vivo. As for the experimental part:
as §3, §6, §7, §8, §9, §10, §11, §12, §13

As for `CCN(CC)C(=O)c1cccc(C)c1` [20% DEET, N,N-diethyl-3-méthylbenzamide], the “mosquitoes caught by treatment” value in [1] was 1; in [2] it was 1; in assay [3], 7; in [6] (total catch during the tests, collection 6 pm to 6 am) it was 686. In assay [4] (6-hour recapture time, all species tested), this molecule showed a protective efficacy of 100%. The “number of mosquitoes recaptured” value in assay [4] (up to 6 hours of recapture period) is recorded as “insignificant”. In addition, the “average mosquito bites received per person per hour” value in assay [5] is recorded as 1.01 (95%: 0.76-1.33) per person per hour. The percentage of repellency result in assay [6] (after 3 h (10 hours after application)) was “under 80%”. Further, the “Median CPT (complete protection time)” value in assay [6] (indoor and outdoor together) stood at 480 min; in assay [6] (indoor) it was 480 min; in assay [6] (outdoor) it was 480 min. The “increase of protection time compared to Ethanol” value in [6] (versus negative control Ethanol) is on record as “four-fold”. The figures for the “Percentage protection (protective efficacy)” value in [7] (12-hour recapture time), in assay [8] (12-hour recapture time) and in assay [9] (12-hour recapture time) were 93.1%, 97.2% and 96.8%, respectively. The Percentage recapture was 4.8% in [7] (12-hour recapture time), 2.7% in assay [8] (12-hour recapture time) and 2.5% in [9] (12-hour recapture time). Moreover, the entries for the “Average CRT (average complete protection time, CPT)” value in [7] (up to 12 hours recapture), in [8] (up to 12 hours recapture) and in assay [9] (up to 12 hours recapture) were 436.9 min, 580.9 min and 575 min, respectively.

Values taken from patent US12616196B2, “Long protection mosquito repellent ointment” (MAIA AFRICA SAS, priority 2019, dated 2026).
